Reference: article PMC7756445, “A Novel Prodrug of a nNOS Inhibitor with Improved Pharmacokinetic Potential” (Chemmedchem, 2020)
Where two headings read alike, the source gives them in different places.

Experiments:
PAMPA-GI assay = test: PAMPA-GI assay; set-up: Papp at 2 h: dose or concentration left out as unconfirmed; conditions: for Papp at 2 h: PAMPA; for PAMPA-GI permeability (in words): only at pH 7.4
Method: (§1) The relative passive transcellular diffusion of compounds, expressed as permeability coefficient (Pe), was determined with a permeability equation. ^[45] The permeabilities of 1, 2, and 1400 W were determined at pH 5.0, 6.5, and 7.4 to mimic the physiological conditions of the GI tract (Table 1). […] As the new prodrug was designed for the potential treatment of neurodegenerative diseases, an important parameter is its capability to cross the BBB.
Each donor filtration plate well, carefully impregnated with 5 µL of this solution, was added of 150 μL of […] test compound buffer solutions (phosphate buffer for pH 7.4 and pH 6.5 and hydrochloric acid buffer for pH 1.4). Subsequently, the drug‐filled donor plate was placed onto the acceptor plate prefilled with the same buffer (300 μL) as the acceptor solution. Once replaced the plate lid, the resulting assembled donor‐acceptor plates were incubated at room temperature for 2 h. The concentration in the acceptor and donor solutions were determined by HPLC. The Pe was determined as previously reported. ^[47]

[1] = Log D and log P by shake-flask method; format: physicochemical; conditions: for logP: shake-flask, as free amine, mean ± SD of three
Description: The herein presented amidoxime 2 was designed as prodrug of the amidine 1 to improve membrane permeability and oral bioavailability. In this context, the deepening of the physicochemical properties is essential to obtain a favorable pharmacological profile. Therefore, we investigated the lipophilicity, the passive permeation through the human GI tract through the PAMPA assays, and the chemical and enzymatic stabilities in simulated GI fluids and plasma. […] In this study, the lipophilicity of our compounds was determined by means of the “shake‐flask method” and compared to the corresponding values calculated by the software. ^[43] However, for ionizable compounds, the distribution coefficient (log D) should be used instead of log P in the pH range where ionic species exist. ^[44] In this study, log P and log D were calculated (Table 1).
The column was a Waters Symmetry RP‐C18 column (4.6×150 mm, 5 μm). The mobile phase was a mixture of TFA 0.01 M/ACN/(MeOH/THF 90 : 10) 20/52/28 and the flow rate was 0.7 mL/min. The UV detector was set at a length of 254 nm.
Both n‐octanol and aqueous buffer (pH 1.4, 6.5 and 9.4) solutions were saturated of each other. 2 mg of tested compound was dissolved in 500 μL of organic phase and mixed with an equal volume of aqueous buffer by repeated inversions of up to 200 times for 5 min and then allowed to stand for 30 min for the phases to fully separate. Thereafter, the respective phases were analyzed by HPLC.

PAMPA-BBB assay = test: PAMPA-BBB assay; set-up: Papp at 18 h: dose or concentration left out as unconfirmed; conditions: for Papp at 18 h: pig, PAMPA
Method: as §1
PAMPA‐BBB assays were performed following the same procedure described above for PAMPA‐GI. Briefly, an artificial membrane consisting in a porcine polar brain lipid extract mixture (purchased from Avantis Polar Lipids, Alabaster, AL, USA) and an incubation time of 18 h were adopted as experimental conditions.

mARC = tested on: mARC; set-up: method as in PMID 31790578; conditions: known in vivo studies; cited from earlier work
eNOS = tested on: eNOS; set-up: method as in PMID 20933416; conditions: previously reported; cited from earlier work
nNOS = tested on: nNOS; set-up: method as in PMID 20933416; conditions: previously reported; cited from earlier work
iNOS = tested on: iNOS; set-up: method as in PMID 20933416; conditions: previously reported; cited from earlier work
[2] = porcine polar brain lipid, 18 h

SMILES	Papp at 2 h (PAMPA-GI assay; pH 1.4)	Papp at 2 h (PAMPA-GI assay; pH 6.5)	Papp at 2 h (PAMPA-GI assay; pH 7.4)	PAMPA-GI permeability (in words) (PAMPA-GI assay)	logD ([1]; n-octanol/aqueous buffer pH 1.4, mean ± SD of three, read-out: log D 1.4)	logD ([1]; n-octanol/aqueous buffer pH 6.5, mean ± SD of three, read-out: log D 6.5)	logD ([1]; n-octanol/aqueous buffer pH 9.4, mean ± SD of three, read-out: log D 9.4)	logP ([1]; n-octanol/aqueous buffer)	Papp at 18 h (PAMPA-BBB assay)	PAMPA-BBB permeation class (PAMPA-BBB assay; [2])	conversion to the corresponding benzamidine in vivo (mARC)	eNOS/nNOS selectivity (eNOS)	melting point	logD ([1]; n-octanol/aqueous buffer, pH 1.4, n-octanol/aqueous buffer pH 1.4, mean ± SD of three, read-out: log D 1.4)	logD ([1]; n-octanol/aqueous buffer, pH 6.5, n-octanol/aqueous buffer pH 6.5, mean ± SD of three, read-out: log D 6.5)	logD ([1]; n-octanol/aqueous buffer, pH 9.4, n-octanol/aqueous buffer pH 9.4, mean ± SD of three, read-out: log D 9.4)	Papp at 18 h (PAMPA-BBB assay; PAMPA-BBB permeability Pe, porcine polar brain lipid, 18 h)	IC50 (nNOS)	iNOS/nNOS selectivity (iNOS)
CC(=N)NCc1cccc(CN)c1 [1400 W, reference compound]	0.98 ×10⁻⁶ cm/s	1.02 ×10⁻⁶ cm/s	1.86 ×10⁻⁶ cm/s	good permeability	-1.82	-1.78	-1.66	-1.66	1.49 ×10⁻⁶ cm/s	CNS− (CNS− (indicative of low BBB permeation): Pe <2.0)	–	–	–	–	–	–	–	–	–
NC(=NO)c1ccccc1 [BAO, benzamidoxime]	–	–	–	–	–	–	–	–	–	–	completely converted	–	–	–	–	–	–	–	–
Br.CC(=N)NC(c1ccccc1)c1ccccc1 [Compound 1, 1‐(benzhydrylamino)ethaniminium bromide]	0.57 ×10⁻⁶ cm/s	1.02 ×10⁻⁶ cm/s	1.88 ×10⁻⁶ cm/s	good permeability	–	–	–	2.54	–	CNS± (CNS± (discrete BBB permeation): Pe from 4.0 to 2.0)	–	1166 folds	278 to 280 °C	-0.85	-0.31	0.75	2.7 ×10⁻⁶ cm/s	300 nM	100 folds
